Reference: patent US9932630B2, “Method and system for decontaminating materials” (RASIRC, Inc., priority 2014, dated 2018)

What was measured:
bovine genomic DNA = tested on: bovine genomic DNA
From the text: (§1) FIG. 4 schematic illustrates the apparatus used in this experiment. Equipment included: a purified clean dry air (CDA) gas supply; a pressurized deionized (DI) water supply; a pressure regulator with gauge, a Filterite MPTE-010-1/4CS 0.01 micron gas filter; 3 mass flow controllers (MFCs); an MFC control box; a Stable Gaseous Delivery (SGD) System (i.e., “Concentrator” in the diagram) and a relative humidity system (RHS) (RASIRC, San Diego, Calif.). Membranes using a fluorinated ion-exchange polymer prepared as an ammonium salt were utilized.
Operation of the decontamination apparatus can be understood with reference to FIG. 4. The CDA gas pressure was maintained at 25 psig with the pressure regulator. A 0.01 micron filter removed particulates from the gas stream. The MFCs controlled the flow of the carrier gas streams and the dilution gas stream. […]
A PCR plate to be used for quantifying amplifiable DNA was prepared with three replicates at each target input level (i.e., ranging from 0 ng to 1,000 ng). In each instance, measured aliquots of an aqueous solution of bovine genomic DNA were added to individual wells of the plate, and then dried. […] Amplification reactions were carried out using procedures familiar to those of ordinary skill in the art, and the appearance of fluorescent signals monitored as a function of time in a real-time format.

bacterial samples = details: visible mist or fog present, droplets condensed onto the sample
E. coli = details: 25° C.
From the text: as §1
Operation of the decontamination apparatus can be understood with reference to FIG. 4. The CDA gas pressure was maintained at 25 psig with the pressure regulator. A 0.01 micron filter removed particulates from the gas stream. The MFCs controlled the flow of the carrier gas streams and the dilution gas stream. The RHS was used to add water gas to the gas stream. […] The water temperature was used to control the output of the humidifier. The valves (V-1, V-2, and V-3) were used to send either the dry CDA gas stream, the RHS gas stream, and/or SGD gas stream through the furnace or out to vent. TC-1 will be used to measure the temperature of the dry CDA gas stream. TC-2 will be used to measure gas temperature downstream of the RHS. TC-3 and TC-4 were used to measure the gas temperature downstream of the SGD. […]

OO [Hydrogen Peroxide Gas, hydrogen peroxide]
reduction of amplifiable DNA (bovine genomic DNA; sample containing the greatest amount of starting material): about 4 logs | amplifiable DNA after treatment (bovine genomic DNA; sample containing the lowest amount of starting material): completely undetectable | reduction of the number of viable organisms (bacterial samples): did not significantly reduce | Growth on tryptic soy agar plates after H202 treatment (E. coli; E. coli 1.7×10^7 cfu per spot, gas-phase H2O2 at 505 ppm and H2O at 2122 ppm for 60 minutes): No Growth | number of viable bacteria after exposure (E. coli; E. coli, gas-phase H2O2 505 ppm, 60 minutes): undetectable level
